Read-outs that look alike come from different tables or passages of the source.
Assays:
[1] = test system: Propionic Acidemia (PA) primary fibroblasts GM00371; assay: Mitochondrial respiration, XFe96 Extracellular Flux Analyzer (OCR/ECAR), PA fibroblasts GM00371; assay type: cell-based; conditions: Homo sapiens, Fibroblast; for activation at 50 µM: assay condition C (10 mM glucose, 10% FBS), read-out: Increase in Maximal Respiratory Capacity AUC
HepG2 cells = assay: Mitochondrial membrane potential (MITO-ID MP detection Kit); assay type: cell-based; conditions: Homo sapiens, 168 h, 7 days; for activation at 10 µM: read-out: % increase in Mitochondrial Membrane Potential; for inhibition at 50 µM: read-out: % decrease in Mitochondrial Membrane Potential
In short: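 Cells plated at 160000 cells/mL in DMEM with 10% FBS and 1% Pen-Strep, adhered overnight at 37° C., 5% CO2. Exposure to test compounds (50-10 μM) or 0.2% DMSO for 7 days without media change; membrane potential measured with MITO-ID MP detection kit per manufacturer.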

[2] = test system: primary fibroblasts (healthy controls and PA, MMA, BCKDK, PDH, VLCAD, LS, PC, GA, VLCFA, KSS, FXN, HD); assay: Measurement of ROS (H2DCFDA) in primary fibroblasts; assay type: cell-based, human; conditions: Homo sapiens, procedure Example 812
In short: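 Patient and healthy-control primary fibroblasts switched to supplemented DMEM 24 h before assay, then treated with compound (10 μM) plus H2DCFDA (22 μM) for 2 h (PA, MMA lines) or 24 h (other lines). Kinetic fluorescence at 492/527 nm over 60 min; only live cells analysed.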

[3] = Fibroblast, BCKD GM00612, Assay Condition A, read-out: Decreased ROS by at least 10%
[4] = Fibroblast, VLCFA GM13262, Assay Condition C, read-out: Decreased ROS by at least 30%
[5] = FXN GM04078, Assay Condition C, read-out: Decreased ROS by at least 10%
[6] = FXN GM04078, Assay Condition C, read-out: Decreased ROS by at least 30%

Row | SMILES | activation at 50 µM [1] | activation at 10 µM (HepG2 cells) | activation at 10 µM ([1]; assay condition A (10 mM glucose, 2 mM L-glutamine, 1 mM pyruvate, 10% FBS), 10 μM, read-out: Increase in Spare Capacity AUC) | inhibition at 10 µM [2, 3] | inhibition at 10 µM [2, 4] | inhibition at 10 µM [2, 5] | inhibition at 10 µM [2, 6] | inhibition at 50 µM (HepG2 cells) | inhibition at 10 µM ([2]; Fibroblast, NPC1 GM22879, Assay Condition C, read-out: Decreased ROS by at least 30%)
1 | CC(C)(CO)[C@@H](O)C(=O)NCCC(=O)NCCSC(CC(=O)OCC[N+](C)(C)C)C(=O)O (stereo partly drawn) [Compound 51, [2-([3-carboxy-3-[(2-[3-[(2R)-2,4-dihydroxy-3,3-dimethylbutanamido]propanamido]ethyl)sulfanyl]propanoyl]oxy)ethyl]trimethylazanium] | ≥ 10% | > 10% | – | – | – | – | – | – | –
2 | COC(=O)CC[C@H](N)C(=O)SCCNC(=O)CCNC(=O)[C@H](O)C(C)(C)CO [Compound 411] | – | 10% | ≥ 30% | ≥ 10% | ≥ 30% | ≥ 10% | ≥ 30% | > 20% | –
3 | CC(O)C(C(=O)SCCNC(=O)CCNC(=O)[C@H](O)C(C)(C)CO)C(C)O (stereo partly drawn) [Compound 1285, (2R)-2,4-dihydroxy-N-[2-[(2-[[3-hydroxy-2-(1-hydroxyethyl)butanoyl]sulfanyl]ethyl)carbamoyl]ethyl]-3,3-dimethylbutanamide] | ≥ 10% | – | – | ≥ 10% | – | – | – | > 30% | ≥ 30%
4 | CC(C)(CO)[C@@H](OC(=O)CCC(=O)O)C(=O)NCCC(=O)NCCS [Compound 1311, (R)-4-((4-hydroxy-1-((3-((2-mercaptoethyl)amino)-3-oxopropyl)amino)-3,3-dimethyl-1-oxobutan-2-yl)oxy)-4-oxobutanoic acid] | – | > 10% | – | ≥ 10% | ≥ 30% | ≥ 10% | ≥ 30% | – | –
